Measurements: ChEMBL document CHEMBL5653615 (J Biol Chem, 2013)

Legend:
[1] = target: T1, Serine/threonine-protein kinase Nek3 (Homo sapiens) (UniProt P51956); experiment: Inhibition of human NEK3 at 18.6 nM by HotSpot assay relative to control
T1 sequence (whole entry): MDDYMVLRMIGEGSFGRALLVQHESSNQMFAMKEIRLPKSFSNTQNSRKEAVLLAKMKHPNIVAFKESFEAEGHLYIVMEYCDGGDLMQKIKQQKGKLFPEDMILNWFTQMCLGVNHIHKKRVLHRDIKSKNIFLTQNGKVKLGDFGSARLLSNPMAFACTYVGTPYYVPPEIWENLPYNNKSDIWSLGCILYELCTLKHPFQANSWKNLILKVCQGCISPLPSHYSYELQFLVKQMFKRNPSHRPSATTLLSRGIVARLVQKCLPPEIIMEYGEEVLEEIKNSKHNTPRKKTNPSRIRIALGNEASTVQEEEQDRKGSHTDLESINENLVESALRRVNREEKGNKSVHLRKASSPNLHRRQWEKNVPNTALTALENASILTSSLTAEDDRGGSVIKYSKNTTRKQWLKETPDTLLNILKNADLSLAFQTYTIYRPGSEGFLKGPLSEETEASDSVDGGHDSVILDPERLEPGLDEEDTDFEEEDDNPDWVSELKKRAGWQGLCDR

[2] = target: T2, Ephrin type-A receptor 1 (Homo sapiens) (UniProt P21709); experiment: Inhibition of human EPHA1 at 1.82 nM by HotSpot assay relative to control
T2 sequence (whole entry): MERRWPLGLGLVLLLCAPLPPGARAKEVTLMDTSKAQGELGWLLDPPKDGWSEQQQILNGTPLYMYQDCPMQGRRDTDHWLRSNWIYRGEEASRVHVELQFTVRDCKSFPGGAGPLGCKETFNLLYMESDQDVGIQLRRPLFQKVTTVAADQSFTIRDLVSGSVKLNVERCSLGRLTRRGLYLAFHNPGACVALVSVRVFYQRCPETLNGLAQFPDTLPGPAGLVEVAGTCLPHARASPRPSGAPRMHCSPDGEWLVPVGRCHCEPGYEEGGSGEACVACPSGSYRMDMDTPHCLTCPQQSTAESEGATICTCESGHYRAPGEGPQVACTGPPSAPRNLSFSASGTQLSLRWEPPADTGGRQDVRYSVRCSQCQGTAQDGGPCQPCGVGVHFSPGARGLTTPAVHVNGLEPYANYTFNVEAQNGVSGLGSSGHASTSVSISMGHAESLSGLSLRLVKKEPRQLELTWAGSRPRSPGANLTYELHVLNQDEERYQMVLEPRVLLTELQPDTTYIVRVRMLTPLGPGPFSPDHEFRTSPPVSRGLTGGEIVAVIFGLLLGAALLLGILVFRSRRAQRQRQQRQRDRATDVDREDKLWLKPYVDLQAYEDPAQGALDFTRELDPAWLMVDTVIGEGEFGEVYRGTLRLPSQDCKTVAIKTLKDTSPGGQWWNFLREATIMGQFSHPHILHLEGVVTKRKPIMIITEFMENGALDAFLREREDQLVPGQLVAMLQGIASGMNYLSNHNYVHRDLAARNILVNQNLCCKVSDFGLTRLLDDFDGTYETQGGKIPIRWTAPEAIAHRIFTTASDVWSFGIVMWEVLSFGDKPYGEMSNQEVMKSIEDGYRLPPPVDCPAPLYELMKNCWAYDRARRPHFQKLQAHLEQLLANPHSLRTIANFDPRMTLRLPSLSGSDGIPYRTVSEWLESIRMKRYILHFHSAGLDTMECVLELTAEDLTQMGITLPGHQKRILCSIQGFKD

[3] = target: Glycogen synthase kinase-3 alpha (Homo sapiens) (UniProt P49840); experiment: Inhibition of human GSK3a at 1.82 nM by HotSpot assay relative to control
Sequence of Glycogen synthase kinase-3 alpha (Homo sapiens) (P49840 2-483 limits assumed): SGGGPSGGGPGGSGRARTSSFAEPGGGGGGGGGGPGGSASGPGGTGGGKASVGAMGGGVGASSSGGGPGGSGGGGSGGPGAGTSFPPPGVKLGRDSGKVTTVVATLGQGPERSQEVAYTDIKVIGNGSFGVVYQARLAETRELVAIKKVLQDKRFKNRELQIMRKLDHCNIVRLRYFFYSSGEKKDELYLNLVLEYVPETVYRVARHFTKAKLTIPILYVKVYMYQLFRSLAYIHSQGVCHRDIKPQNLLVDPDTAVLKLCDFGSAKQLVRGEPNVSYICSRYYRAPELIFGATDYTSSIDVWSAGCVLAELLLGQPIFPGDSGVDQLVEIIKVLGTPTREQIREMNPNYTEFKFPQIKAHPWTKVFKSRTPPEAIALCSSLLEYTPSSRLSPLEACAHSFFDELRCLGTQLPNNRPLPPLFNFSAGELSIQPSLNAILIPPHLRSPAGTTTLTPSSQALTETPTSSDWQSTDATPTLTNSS

[4] = target: Tyrosine-protein kinase JAK1 (Homo sapiens) (UniProt P23458); experiment: Inhibition of human JAK1 at 1.82 nM by HotSpot assay relative to control
Sequence of Tyrosine-protein kinase JAK1 (Homo sapiens) (P23458 whole entry): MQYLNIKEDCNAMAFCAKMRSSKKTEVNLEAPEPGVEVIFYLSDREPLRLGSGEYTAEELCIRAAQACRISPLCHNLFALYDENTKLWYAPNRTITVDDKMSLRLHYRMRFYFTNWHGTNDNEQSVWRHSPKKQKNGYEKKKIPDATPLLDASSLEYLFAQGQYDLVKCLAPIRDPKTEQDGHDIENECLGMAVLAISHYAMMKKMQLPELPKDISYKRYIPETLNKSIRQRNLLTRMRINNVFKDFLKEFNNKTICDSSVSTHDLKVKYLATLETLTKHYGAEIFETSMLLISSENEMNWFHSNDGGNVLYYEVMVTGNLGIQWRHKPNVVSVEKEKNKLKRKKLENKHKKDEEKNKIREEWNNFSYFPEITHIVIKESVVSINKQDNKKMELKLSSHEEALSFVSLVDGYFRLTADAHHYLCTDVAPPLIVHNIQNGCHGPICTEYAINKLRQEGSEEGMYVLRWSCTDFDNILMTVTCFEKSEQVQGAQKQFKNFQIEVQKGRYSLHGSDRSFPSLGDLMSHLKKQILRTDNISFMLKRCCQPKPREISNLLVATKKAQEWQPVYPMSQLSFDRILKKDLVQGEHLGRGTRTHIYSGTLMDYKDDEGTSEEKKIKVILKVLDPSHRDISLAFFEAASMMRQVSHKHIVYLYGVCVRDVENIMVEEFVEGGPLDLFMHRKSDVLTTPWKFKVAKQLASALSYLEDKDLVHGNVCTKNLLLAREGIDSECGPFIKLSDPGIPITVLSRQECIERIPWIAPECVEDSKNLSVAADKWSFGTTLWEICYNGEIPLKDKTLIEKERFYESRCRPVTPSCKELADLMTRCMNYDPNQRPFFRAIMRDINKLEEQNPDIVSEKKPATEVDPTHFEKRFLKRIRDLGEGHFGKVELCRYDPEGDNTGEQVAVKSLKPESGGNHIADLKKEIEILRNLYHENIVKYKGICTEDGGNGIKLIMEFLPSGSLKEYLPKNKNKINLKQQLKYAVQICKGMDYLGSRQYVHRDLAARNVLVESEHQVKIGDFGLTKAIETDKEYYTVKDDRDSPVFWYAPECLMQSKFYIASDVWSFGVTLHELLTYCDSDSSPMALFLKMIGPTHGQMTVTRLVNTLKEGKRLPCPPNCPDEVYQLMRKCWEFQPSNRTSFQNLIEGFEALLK

[5] = target: T1, Serine/threonine-protein kinase Nek3 (Homo sapiens); experiment: Inhibition of human NEK3 at 1.82 nM by HotSpot assay relative to control
[6] = target: Protein kinase C delta type (Homo sapiens) (UniProt Q05655); experiment: Inhibition of human PKCd at 1.82 nM by HotSpot assay relative to control
Sequence of Protein kinase C delta type (Homo sapiens) (Q05655 whole entry, looked up): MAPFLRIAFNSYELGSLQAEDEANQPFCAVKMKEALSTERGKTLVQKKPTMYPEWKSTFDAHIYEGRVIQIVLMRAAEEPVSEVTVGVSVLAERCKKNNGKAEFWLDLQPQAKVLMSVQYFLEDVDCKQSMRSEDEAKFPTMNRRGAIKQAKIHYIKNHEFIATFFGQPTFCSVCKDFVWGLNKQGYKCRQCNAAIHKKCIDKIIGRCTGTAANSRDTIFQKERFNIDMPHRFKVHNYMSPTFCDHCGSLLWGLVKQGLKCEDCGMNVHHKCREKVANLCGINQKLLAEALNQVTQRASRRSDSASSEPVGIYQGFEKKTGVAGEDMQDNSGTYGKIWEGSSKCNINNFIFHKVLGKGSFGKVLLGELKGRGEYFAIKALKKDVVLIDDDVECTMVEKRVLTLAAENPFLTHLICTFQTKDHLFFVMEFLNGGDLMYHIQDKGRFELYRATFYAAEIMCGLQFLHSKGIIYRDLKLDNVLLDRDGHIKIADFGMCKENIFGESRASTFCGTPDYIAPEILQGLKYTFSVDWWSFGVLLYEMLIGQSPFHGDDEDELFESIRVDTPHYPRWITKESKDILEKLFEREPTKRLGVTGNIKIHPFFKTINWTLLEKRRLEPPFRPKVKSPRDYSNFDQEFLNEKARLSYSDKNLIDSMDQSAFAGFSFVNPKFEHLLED

[7] = target: Proto-oncogene tyrosine-protein kinase ROS (Homo sapiens) (UniProt P08922); experiment: Inhibition of human ROS1 at 1.82 nM by HotSpot assay relative to control
Sequence of Proto-oncogene tyrosine-protein kinase ROS (Homo sapiens) (P08922 whole entry): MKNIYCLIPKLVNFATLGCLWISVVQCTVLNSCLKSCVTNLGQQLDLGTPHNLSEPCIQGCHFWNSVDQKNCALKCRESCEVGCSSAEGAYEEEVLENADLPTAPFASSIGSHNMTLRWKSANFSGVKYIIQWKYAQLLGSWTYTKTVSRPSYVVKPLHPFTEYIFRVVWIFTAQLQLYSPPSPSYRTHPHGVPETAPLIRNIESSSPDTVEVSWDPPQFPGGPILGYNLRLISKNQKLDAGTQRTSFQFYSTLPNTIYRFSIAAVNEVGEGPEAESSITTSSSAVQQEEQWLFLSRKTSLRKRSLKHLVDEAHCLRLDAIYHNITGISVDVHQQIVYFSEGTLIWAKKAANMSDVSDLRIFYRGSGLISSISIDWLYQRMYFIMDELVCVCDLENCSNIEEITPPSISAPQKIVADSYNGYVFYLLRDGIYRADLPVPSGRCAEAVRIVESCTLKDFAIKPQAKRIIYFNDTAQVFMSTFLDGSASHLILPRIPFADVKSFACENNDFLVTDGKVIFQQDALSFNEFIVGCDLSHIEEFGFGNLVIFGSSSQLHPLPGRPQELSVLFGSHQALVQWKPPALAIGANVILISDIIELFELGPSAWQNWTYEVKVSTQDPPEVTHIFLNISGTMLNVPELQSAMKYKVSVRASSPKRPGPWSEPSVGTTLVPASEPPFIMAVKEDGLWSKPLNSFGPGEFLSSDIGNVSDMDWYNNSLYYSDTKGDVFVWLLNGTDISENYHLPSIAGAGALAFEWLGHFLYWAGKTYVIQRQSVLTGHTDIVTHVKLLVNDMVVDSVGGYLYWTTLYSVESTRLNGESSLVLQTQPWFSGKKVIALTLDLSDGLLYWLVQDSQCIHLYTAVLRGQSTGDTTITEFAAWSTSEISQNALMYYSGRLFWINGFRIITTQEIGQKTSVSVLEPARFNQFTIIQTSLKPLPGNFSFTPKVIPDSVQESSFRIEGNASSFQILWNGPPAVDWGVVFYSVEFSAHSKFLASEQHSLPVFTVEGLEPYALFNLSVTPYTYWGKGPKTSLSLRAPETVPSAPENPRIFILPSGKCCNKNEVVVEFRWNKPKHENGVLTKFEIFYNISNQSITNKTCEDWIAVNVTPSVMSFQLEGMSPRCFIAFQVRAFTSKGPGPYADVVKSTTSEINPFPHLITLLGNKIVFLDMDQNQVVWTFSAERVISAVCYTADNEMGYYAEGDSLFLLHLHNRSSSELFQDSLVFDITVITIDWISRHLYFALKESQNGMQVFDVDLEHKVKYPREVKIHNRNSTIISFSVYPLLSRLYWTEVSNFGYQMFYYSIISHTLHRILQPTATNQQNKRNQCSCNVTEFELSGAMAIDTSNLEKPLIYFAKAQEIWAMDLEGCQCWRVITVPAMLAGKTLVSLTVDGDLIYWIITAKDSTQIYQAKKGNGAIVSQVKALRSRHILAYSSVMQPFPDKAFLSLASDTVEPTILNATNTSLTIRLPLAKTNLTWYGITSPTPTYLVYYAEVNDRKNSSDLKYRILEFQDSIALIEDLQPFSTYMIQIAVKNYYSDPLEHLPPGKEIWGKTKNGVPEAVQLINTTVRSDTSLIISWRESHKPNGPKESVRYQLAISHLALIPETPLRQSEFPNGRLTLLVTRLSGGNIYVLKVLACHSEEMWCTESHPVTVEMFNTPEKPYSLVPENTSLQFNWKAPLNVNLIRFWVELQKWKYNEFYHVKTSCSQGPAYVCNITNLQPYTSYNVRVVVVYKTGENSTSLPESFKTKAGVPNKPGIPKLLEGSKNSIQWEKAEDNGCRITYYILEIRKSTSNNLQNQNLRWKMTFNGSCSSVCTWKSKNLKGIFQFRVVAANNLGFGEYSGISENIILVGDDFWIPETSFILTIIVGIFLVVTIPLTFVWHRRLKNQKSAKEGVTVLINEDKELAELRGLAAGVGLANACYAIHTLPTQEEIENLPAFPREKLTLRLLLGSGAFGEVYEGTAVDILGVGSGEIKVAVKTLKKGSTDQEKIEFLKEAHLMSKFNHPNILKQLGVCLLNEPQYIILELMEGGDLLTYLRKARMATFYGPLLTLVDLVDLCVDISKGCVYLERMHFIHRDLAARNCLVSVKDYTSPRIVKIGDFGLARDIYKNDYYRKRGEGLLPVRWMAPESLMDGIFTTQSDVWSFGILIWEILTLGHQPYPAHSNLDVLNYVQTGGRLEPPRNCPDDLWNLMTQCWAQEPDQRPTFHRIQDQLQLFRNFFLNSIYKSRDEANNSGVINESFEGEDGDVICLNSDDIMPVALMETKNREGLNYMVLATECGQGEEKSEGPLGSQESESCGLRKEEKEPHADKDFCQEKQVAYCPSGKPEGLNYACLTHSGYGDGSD

Homo sapiens = species on record: Homo sapiens; experiment: Inhibition of human TAO1 at 1.82 nM by HotSpot assay relative to control
[8] = target: T3, Serine/threonine-protein kinase TBK1 (Homo sapiens) (UniProt Q9UHD2); experiment: Inhibition of human TBK1 at 1.82 nM by HotSpot assay relative to control
T3 sequence (whole entry): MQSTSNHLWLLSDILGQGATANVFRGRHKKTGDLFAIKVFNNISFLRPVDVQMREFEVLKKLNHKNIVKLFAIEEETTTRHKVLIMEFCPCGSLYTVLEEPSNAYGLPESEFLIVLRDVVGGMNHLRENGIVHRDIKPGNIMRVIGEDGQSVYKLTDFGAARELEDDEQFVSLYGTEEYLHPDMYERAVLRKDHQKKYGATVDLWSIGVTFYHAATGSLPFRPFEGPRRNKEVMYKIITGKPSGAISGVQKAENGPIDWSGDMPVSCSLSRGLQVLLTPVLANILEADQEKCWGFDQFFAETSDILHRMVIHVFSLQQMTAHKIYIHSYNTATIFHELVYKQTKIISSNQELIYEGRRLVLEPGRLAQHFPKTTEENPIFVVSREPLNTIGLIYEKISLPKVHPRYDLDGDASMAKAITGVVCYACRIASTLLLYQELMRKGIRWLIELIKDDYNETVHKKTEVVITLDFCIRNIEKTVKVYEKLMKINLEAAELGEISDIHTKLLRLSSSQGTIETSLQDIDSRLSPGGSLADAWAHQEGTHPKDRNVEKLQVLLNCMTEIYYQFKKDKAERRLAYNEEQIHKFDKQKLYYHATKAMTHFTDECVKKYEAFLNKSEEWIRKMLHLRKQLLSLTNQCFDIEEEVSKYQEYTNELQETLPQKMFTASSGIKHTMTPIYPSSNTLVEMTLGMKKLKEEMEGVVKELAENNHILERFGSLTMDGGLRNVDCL

inhibition [1] | inhibition [2] | inhibition [3] | inhibition [4] | inhibition [5] | inhibition [6] | inhibition [7] | inhibition (Homo sapiens) | inhibition [8] | SMILES
7.82% |  |  |  |  |  |  |  |  | C[C@]1(O)C[C@@H](c2nc(-c3ccc4ccc(-c5ccccc5)nc4c3)c3c(N)nccn32)C1
 | -4.67% | 4.1% | -5.65% | 1.63% | -1.35% | 73.5% | 1.46% | 7.68% | C[C@@]1(C(=O)Nc2ccc(F)nc2)CCCN1c1nc(Nc2cc(C3CC3)n[nH]2)c2cccn2n1
